This is an account of results in US6903119B1, “Amino acid derivatives and drugs containing the same as the active ingredient” (Ono Pharmaceutical Co., Ltd., priority 1998, dated 2005).

The assay concerns the target T1, N-type calcium channel (Homo sapiens, UniProt Q00975).
T1 construct: Cell line was differentiated according to the method described in FEBS Lett. (1988) 235 178-182; endogenous in cells; host or cells: unnamed cell line, differentiated per FEBS Lett. (1988) 235 178-182
Description: Determination of inhibitory activity on N-type calcium channel (Fura-2 calcium influx, KCl depolarization, with nifedipine). Format: cell-based. As to conditions: compound at final concentration of 3 μM, depolarized with 80 mM KCl, Fura-2 fluorescence, read-out: Inhibitory effect on calcium flow (%). Here is the method:
Determination of Inhibitory Activity on N-type Calcium Channel:
Cell line was differentiated according to the method described in FEBS Lett. (1988) 235 178-182. The cell was loaded with fluoriescent reagent, Fura-2 AM (at the final concentration of 10 μM), at 37° C. for 30 minutes and suspended in Krebs-buffer containing HEPES (25 mM) to obtain the cell suspension. The obtained cell suspension was incubated in the presence or absence of the compounds of the present invention with nifedipine for 5 minutes. The cell was depolarized by adding potassium chloride solution (at the final concentration of 80 mM) thereto and then a fluorescence intensity at the emission wavelength of 500 nm excited by the UV of 340 nm and 380 nm alternately was measured using the intracellular calcium analyzer (Nippon Bunko Co., CAF-110). The inhibitory activity of the compound of the present invention (at the final concentration of 3 μM) on calcium influx into the cell was calculated from the difference in changing the fluorescence intensity at peak (ΔR) according to the following equation. [formula]

Molecules are shown by their SMILES. Where a name gives a salt, the structure may show the parent alone.

T1 sequence (Q00975 whole entry): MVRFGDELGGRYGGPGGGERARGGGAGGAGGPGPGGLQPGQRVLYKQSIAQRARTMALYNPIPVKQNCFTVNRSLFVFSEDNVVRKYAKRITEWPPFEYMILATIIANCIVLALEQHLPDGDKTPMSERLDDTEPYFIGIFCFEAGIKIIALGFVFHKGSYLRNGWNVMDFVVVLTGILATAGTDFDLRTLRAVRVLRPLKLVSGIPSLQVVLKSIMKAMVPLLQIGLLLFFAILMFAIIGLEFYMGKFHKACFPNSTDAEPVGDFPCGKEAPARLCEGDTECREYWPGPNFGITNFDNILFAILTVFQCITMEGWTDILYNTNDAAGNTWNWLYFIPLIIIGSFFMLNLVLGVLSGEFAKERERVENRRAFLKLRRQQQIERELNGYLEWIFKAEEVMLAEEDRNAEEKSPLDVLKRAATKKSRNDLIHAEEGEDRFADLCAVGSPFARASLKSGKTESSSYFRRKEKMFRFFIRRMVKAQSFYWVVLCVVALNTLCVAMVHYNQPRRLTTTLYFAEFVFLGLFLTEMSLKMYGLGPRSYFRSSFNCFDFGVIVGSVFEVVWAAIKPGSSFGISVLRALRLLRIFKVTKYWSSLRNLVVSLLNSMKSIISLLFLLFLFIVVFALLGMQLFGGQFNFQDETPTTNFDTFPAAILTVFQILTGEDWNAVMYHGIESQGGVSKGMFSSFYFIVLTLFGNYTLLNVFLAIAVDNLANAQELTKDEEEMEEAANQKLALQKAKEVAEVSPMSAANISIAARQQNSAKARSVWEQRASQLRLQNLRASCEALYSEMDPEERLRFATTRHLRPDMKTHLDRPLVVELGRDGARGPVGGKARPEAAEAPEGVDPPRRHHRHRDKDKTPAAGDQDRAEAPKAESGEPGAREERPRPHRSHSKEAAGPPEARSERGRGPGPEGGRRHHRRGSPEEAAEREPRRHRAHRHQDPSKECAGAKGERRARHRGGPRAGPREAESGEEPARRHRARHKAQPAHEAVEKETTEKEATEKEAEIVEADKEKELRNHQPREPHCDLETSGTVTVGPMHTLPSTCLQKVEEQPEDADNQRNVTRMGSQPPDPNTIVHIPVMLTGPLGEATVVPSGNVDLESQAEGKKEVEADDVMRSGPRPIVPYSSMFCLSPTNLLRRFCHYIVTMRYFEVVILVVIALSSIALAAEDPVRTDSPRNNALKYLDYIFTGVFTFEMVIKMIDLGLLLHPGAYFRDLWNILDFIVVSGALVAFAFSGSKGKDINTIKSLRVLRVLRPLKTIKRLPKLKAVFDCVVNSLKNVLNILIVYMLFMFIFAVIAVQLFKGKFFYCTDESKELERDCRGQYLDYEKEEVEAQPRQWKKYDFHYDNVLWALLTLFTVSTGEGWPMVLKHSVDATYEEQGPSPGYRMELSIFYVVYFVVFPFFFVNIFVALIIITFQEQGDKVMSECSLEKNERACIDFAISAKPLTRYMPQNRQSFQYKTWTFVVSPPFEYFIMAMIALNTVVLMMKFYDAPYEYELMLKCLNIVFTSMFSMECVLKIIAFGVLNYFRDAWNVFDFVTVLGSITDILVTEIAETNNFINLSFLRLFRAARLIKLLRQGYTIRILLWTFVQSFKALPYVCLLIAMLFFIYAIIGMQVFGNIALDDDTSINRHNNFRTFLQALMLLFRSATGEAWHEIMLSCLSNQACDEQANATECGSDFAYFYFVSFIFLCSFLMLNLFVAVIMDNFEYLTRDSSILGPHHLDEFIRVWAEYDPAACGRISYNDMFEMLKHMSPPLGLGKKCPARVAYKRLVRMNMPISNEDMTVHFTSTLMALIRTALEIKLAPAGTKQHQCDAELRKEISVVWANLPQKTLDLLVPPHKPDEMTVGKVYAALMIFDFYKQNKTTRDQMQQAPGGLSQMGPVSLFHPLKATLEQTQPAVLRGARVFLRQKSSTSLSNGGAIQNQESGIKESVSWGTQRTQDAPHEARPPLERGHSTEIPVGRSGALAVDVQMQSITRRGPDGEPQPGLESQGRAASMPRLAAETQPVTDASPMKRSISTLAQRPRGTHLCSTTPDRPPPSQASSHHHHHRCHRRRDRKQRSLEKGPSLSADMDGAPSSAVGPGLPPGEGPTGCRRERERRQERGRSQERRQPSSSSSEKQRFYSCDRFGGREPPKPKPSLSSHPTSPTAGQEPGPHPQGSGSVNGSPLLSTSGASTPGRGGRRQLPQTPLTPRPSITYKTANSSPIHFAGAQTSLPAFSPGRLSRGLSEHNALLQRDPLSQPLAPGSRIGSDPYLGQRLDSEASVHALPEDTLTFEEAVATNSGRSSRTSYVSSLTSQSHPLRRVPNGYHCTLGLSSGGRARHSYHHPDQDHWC

Turning to `CC(C)(C)CC(=O)N1CSC[C@H]1C(=O)N[C@@H](CSCC1CCCCC1)C(=O)NC1CCN(Cc2ccccc2)CC1` [11 (2), (2R)-N-(1-benzylpiperidin-4-yl)-3-cyclohexylmethylthio-2-((4R)-3-(3,3-dimethylbutyryl)thiazolidin-4-ylcarbonylamino)propanamide.hydrochloride], the inhibition at 3 µM is 89%. In the case of `COCCOC(=O)N1CSC[C@H]1C(=O)N[C@@H](CSCC1CCCCC1)C(=O)NC1CCN(Cc2ccccc2)CC1` [compound 11] it was 81%.
